# “Also recorded” adds a separate entry of the source. Read-outs that look alike come from different tables or passages of the source.
# Experiments:
# [1] = test system: MRSA ATCC 700699 (NRS1, VISA); experiment: MIC/MBC broth microdilution, NRS1 (ATCC 700699); format: cell-based; conditions: Staphylococcus aureus
# Summary of the method: (§1)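 Compounds were tested in triplicate samples against each MRSA strain, and the MIC was then read by broth microdilution as recommended by CLSI.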
# VISA LIM 3 (NRS37) = experiment: MIC/MBC broth microdilution, NRS37 (VISA LIM 3); format: cell-based; conditions: Staphylococcus aureus
# Summary of the method: as §1
# NRS107 = experiment: MIC/MBC broth microdilution, NRS107; format: cell-based; conditions: Staphylococcus aureus
# Summary of the method: as §1
# MRSA USA100 = experiment: MIC broth microdilution, MRSA USA100; format: cell-based; conditions: Staphylococcus aureus; Table 2; MRSA USA100; read-out: Minimum Inhibitory Concentration
# Procedure: (§2) Determination of minimum inhibitory concentration (MIC). The MICs of the lead thiazole compound (compound 1a) and nine derivatives tested against all 18 MRSA strains were determined, in triplicate samples, using the broth microdilution method in accordance with the recommendations contained in the CLSI guidelines.
# MRSA USA200 = experiment: MIC broth microdilution, MRSA USA200; format: cell-based; conditions: Staphylococcus aureus; Table 2; MRSA USA200; read-out: Minimum Inhibitory Concentration
# Procedure: as §2
# MRSA NRS384 (USA300) = experiment: MIC/MBC broth microdilution, NRS384 (USA300); format: cell-based; conditions: Staphylococcus aureus
# Summary of the method: as §1
# MRSA USA500 (NRS385) = experiment: MIC/MBC broth microdilution, NRS385 (USA500); format: cell-based; conditions: Staphylococcus aureus
# Summary of the method: as §1
# MRSA USA700 = experiment: MIC broth microdilution, MRSA USA700; format: cell-based; conditions: Staphylococcus aureus, Table 2, read-out: Minimum Inhibitory Concentration
# Procedure: as §2
# MRSA USA1000 = experiment: MIC broth microdilution, MRSA USA1000; format: cell-based; conditions: Staphylococcus aureus, Table 2, read-out: Minimum Inhibitory Concentration
# Procedure: as §2
# VRSA (VRS10) = experiment: MIC/MBC broth microdilution, VRSA (VRS10); format: cell-based, Staphylococcus aureus; conditions: Staphylococcus aureus, read-out: Minimum Inhibitory Concentration
# Procedure: as §2
# [2] = test system: murine macrophage cells (J774.A1); experiment: In vitro cytotoxicity analysis, MTS assay; format: cell-based; conditions: 16 μM, 24 hours
# Procedure: In vitro cytotoxicity analysis: Compounds were assayed at concentrations of 2 μM, 4 μM, 8 μM, and 16 μM against a macrophage cell line (J774.A1) to determine the potential toxic effect in vitro. Murine macrophage cells were cultured in Dulbeco's Modified Eagle Medium (Sigma-Aldrich, St. Louis, Mo., USA) with 10% Fetal Bovine Serum (USA Scientific, Inc.) at 37° C. with 5% CO2. Controls received DMSO alone at a concentration equal to that in drug-treated cell samples. The cells were incubated with the compounds in a 96-Well Plate at 37° C. and 5.0% CO2 for 24 hours prior to addition of the assay reagent MTS 3-(4,5-dimethylthiazol-2-yl)-5-(3-carboxymethoxyphenyl)-2-(4-sulfophenyl)-2H-tetrazolium) (Promega, Madison, Wis., USA). The reagent measures the succinate dehydrogenase mitochondrial activity as an indicator of cell viability and proliferation. Corrected absorbance readings (actual absorbance readings for each treatment subtracted from background absorbance) were taken using a kinetic ELISA microplate reader (Molecular Devices, Sunnyvale, Calif., USA). The quantity of viable cells after treatment with each compound was expressed as a percentage of the control, DMSO.
# MRSA ATCC 43300 [3] = experiment: MIC/MBC broth microdilution, MRSA ATCC 43300; format: cell-based, Staphylococcus aureus; conditions: Staphylococcus aureus
# Summary of the method: as §1
# VISA HIP07256 (NRS19) = experiment: MIC/MBC broth microdilution, NRS19 (VISA HIP07256); format: cell-based; conditions: Staphylococcus aureus
# Summary of the method: as §1
# NRS119 = experiment: MIC/MBC broth microdilution, NRS119; format: cell-based; conditions: Staphylococcus aureus
# Summary of the method: as §1
# MRSA USA400 (NRS123) = experiment: MIC/MBC broth microdilution, NRS123 (USA400); format: cell-based; conditions: Staphylococcus aureus
# Summary of the method: as §1
# NRS194 = experiment: MIC/MBC broth microdilution, NRS194; format: cell-based; conditions: Staphylococcus aureus
# Summary of the method: as §1
# MRSA USA800 = experiment: MIC broth microdilution, MRSA USA800; format: cell-based; conditions: Staphylococcus aureus, Table 2, read-out: Minimum Inhibitory Concentration
# Procedure: as §2
# [4] = test system: 18 different strains of MRSA and VRSA; experiment: MIC broth microdilution, panel of 18 MRSA and VRSA strains (summary statements); format: cell-based, Staphylococcus aureus; conditions: for improvement in the MIC value relative to the lead compound: relative to lead compound 1a, number of strains as stated in the sentence
# Procedure: as §2
# MRSA (USA300) = experiment: Time-kill assay; format: cell-based, Staphylococcus aureus; conditions: 3.0×MIC; for bactericidal effect in time-kill assay: 12 hour incubation at 37° C.; for time to eliminate MRSA completely (reduce CFU to zero): MRSA (USA300)
# Procedure: Time-kill assay. […] Viable CFU/mL was determined by serial dilution and plating on trypticase soy agar (TSA) (Becton, Dickinson and Company, Sparks, Md., USA) plates after 0, 2, 4, 6, 8, 10, and 12 hours of incubation at 37° C. to identify the time required to reduce the bacterial cell count by 3-log10.
# MRSA ATCC 43300 [5] = experiment: Flow cytometry with LIVE/DEAD Fixable Dead Cell Stain; format: cell-based, Staphylococcus aureus; conditions: compound 1a at 4.0×MIC; lysostaphin positive control; 10 minutes at 37° C.
# Procedure: Flow cytometry and LIVE/DEAD® Fixable Dead Cell Stain: The action of the lead compound on cell membrane permeability of MRSA was assayed using the LIVE/DEAD® Fixable Dead Cell Stain Kit (Invitrogen, Eugene, Oreg., USA) according to the manufacturer's instructions. […] Post-treatment cells were fixed with 3.7% formaldehyde; the cells were then screened with a Beckman Coulter FC500 flow cytometer.
# NRS108 = experiment: MIC broth microdilution, NRS108; format: cell-based; conditions: Staphylococcus aureus, Table 2, read-out: Minimum Inhibitory Concentration
# Procedure: as §2
# MRSA USA1100 = experiment: MIC broth microdilution, MRSA USA1100; format: cell-based; conditions: Staphylococcus aureus, Table 2, read-out: Minimum Inhibitory Concentration
# Procedure: as §2
# [6] = Table 2, MRSA ATCC 700699, read-out: Minimum Inhibitory Concentration
# [7] = Table 2, VISA LIM 3, read-out: Minimum Inhibitory Concentration
# [8] = Table 2, read-out: Minimum Inhibitory Concentration
# [9] = Table 2, MRSA USA300, read-out: Minimum Inhibitory Concentration
# [10] = Table 2, MRSA USA500, read-out: Minimum Inhibitory Concentration
# [11] = Table 2, MRSA USA400, read-out: Minimum Inhibitory Concentration
structure (smiles),measurement,setting,value
CCCCCCCc1ccc(-c2nc(C)c(/C(C)=N/NC(=N)N)s2)cc1 [Compound 1e],MIC,[1]; [6],0.7 µg/mL
same,MIC,VISA LIM 3 (NRS37); [7],0.7 µg/mL
same,MIC,NRS107; [8],0.7 µg/mL
same,MIC,MRSA USA100,1.5 µg/mL
same,MIC,MRSA USA200,1.5 µg/mL
same,MIC,MRSA NRS384 (USA300); [9],3 µg/mL
same,MIC,MRSA USA500 (NRS385); [10],3 µg/mL
same,MIC,MRSA USA700,3 µg/mL
same,MIC,MRSA USA1000,3 µg/mL
same,MIC,"VRSA (VRS10); Table 2, VRSA",3 µg/mL
same,toxicity toward murine macrophage cells,[2],exhibited toxicity; also recorded: toxic
CCCCc1ccc(-c2nc(C)c(/C(C)=N/NC(=N)N)s2)cc1 [Compound 1a],MIC,"MRSA ATCC 43300 [3]; Table 4, MRSA ATCC 43300, 64 μM down to 0.5 μM, 37° C., 19 hours, read-out: Minimum Inhibitory Concentration",4 µM
same,MIC,"MRSA ATCC 43300 [3]; Table 7, MRSA (ATCC 43300), read-out: Minimum Inhibitory Concentration",4 µM
same,MBC,"MRSA ATCC 43300 [3]; Table 8, ATCC 43300, read-out: MBC",4 µM
same,MIC,"MRSA ATCC 43300 [3]; Table 8, ATCC 43300, read-out: MIC",4 µM
same,MIC,[1]; [6],1.4 µg/mL
same,MIC,"[1]; Table 7, VISA (NRS1), read-out: Minimum Inhibitory Concentration",16 µM
same,MBC,"[1]; Table 8, NRS1 (VISA), read-out: MBC",8 µM
same,MIC,"[1]; Table 8, NRS1 (VISA), triplicates, 20 hours, read-out: MIC",4 µM
same,MIC,"VISA HIP07256 (NRS19); Table 2, VISA HIP07256, read-out: Minimum Inhibitory Concentration",1.4 µg/mL
same,MBC,"VISA HIP07256 (NRS19); Table 8, NRS19 (VISA), read-out: MBC",8 µM
same,MIC,"VISA HIP07256 (NRS19); Table 8, NRS19 (VISA), read-out: MIC",4 µM
same,MIC,VISA LIM 3 (NRS37); [7],1.4 µg/mL
same,MBC,"VISA LIM 3 (NRS37); Table 8, NRS37 (VISA), read-out: MBC",8 µM
same,MIC,"VISA LIM 3 (NRS37); Table 8, NRS37 (VISA), read-out: MIC",8 µM
same,MBC,"NRS107; Table 8, read-out: MBC",8 µM
same,MIC,"NRS107; Table 8, read-out: MIC",8 µM
same,MIC,"NRS119; NRS 119 / VISA, Table 7, VISA (NRS119), read-out: Minimum Inhibitory Concentration",4 µM
same,MBC,"NRS119; Table 8, NRS119, read-out: MBC",8 µM
same,MIC,"NRS119; Table 8, NRS119, read-out: MIC",8 µM
same,MBC,"MRSA USA400 (NRS123); Table 8, NRS123, read-out: MBC",4 µM
same,MIC,"MRSA USA400 (NRS123); Table 8, NRS123, read-out: MIC",4 µM
same,MBC,"NRS194; Table 8, read-out: MBC",4 µM
same,MIC,"NRS194; Table 8, read-out: MIC",4 µM
same,MIC,MRSA USA100,5.5 µg/mL
same,MIC,MRSA NRS384 (USA300); [9],1.4 µg/mL
same,MIC,"MRSA NRS384 (USA300); Table 5, MRSA NRS384 (USA300), 128 μM down to 1.0 μM, 37° C., 19 hours, read-out: Minimum Inhibitory Concentration",4 µM
same,MBC,"MRSA NRS384 (USA300); Table 8, NRS384, read-out: MBC",4 µM
same,MIC,"MRSA NRS384 (USA300); Table 8, NRS384, read-out: MIC",4 µM
same,MIC,MRSA USA500 (NRS385); [10],1.4 µg/mL
same,MBC,"MRSA USA500 (NRS385); Table 8, NRS385, read-out: MBC",4 µM
same,MIC,"MRSA USA500 (NRS385); Table 8, NRS385, read-out: MIC",4 µM
same,MIC,MRSA USA700,1.4 µg/mL
same,MIC,MRSA USA800,2.8 µg/mL
same,MIC,"VRSA (VRS10); Table 7, VRSA (VRS10)",4 µM
same,"concentration inhibiting growth (MIC), range over the strains tested",[4]; 18 strains of MRSA and VRSA,1.4 to 5.5 µg/mL
same,bactericidal effect in time-kill assay,MRSA (USA300),bactericidal
same,time to eliminate MRSA completely (reduce CFU to zero),MRSA (USA300),within two hours
same,cells stained with the dye,MRSA ATCC 43300 [5],1.5%
"C/C(=N\NC(=N)N)c1sc(-c2ccc(-c3ccccc3)cc2)nc1C [Compound 12, 2-{1-[2-([1,1′-Biphenyl]-4-yl)-4-methylthiazol-5-yl]ethylidene}hydrazinecarboximid-amide]",MIC,[1]; [6],0.6 µg/mL
same,MIC,NRS108,2.4 µg/mL
same,MIC,MRSA USA400 (NRS123); [11],0.6 µg/mL
same,MIC,NRS194; [8],1.2 µg/mL
same,MIC,MRSA USA100,2.4 µg/mL
same,MIC,MRSA NRS384 (USA300); [9],1.2 µg/mL
same,MIC,MRSA USA500 (NRS385); [10],1.2 µg/mL
same,MIC,MRSA USA700,0.6 µg/mL
same,MIC,MRSA USA1100,0.6 µg/mL
same,MIC,"VRSA (VRS10); Table 2, VRSA",1.2 µg/mL
same,improvement in the MIC value relative to the lead compound,[4],two- to four-fold improvement
same,toxicity toward murine macrophage cells,[2],none were observed to be toxic
"C/C(=N\NC(=N)N)c1sc(-c2ccc(C3CCCCC3)cc2)nc1C [Compound 8, 2-{1-[2-(4-Cyclohexylphenyl)-4-methylthiazol-5-yl]ethylidene}hydrazinecarboximid-amide]",MIC,[1]; [6],0.7 µg/mL
same,MIC,VISA LIM 3 (NRS37); [7],0.4 µg/mL
same,MIC,NRS107; [8],0.7 µg/mL
same,MIC,MRSA USA400 (NRS123); [11],0.7 µg/mL
same,MIC,MRSA USA200,1.5 µg/mL
same,MIC,MRSA NRS384 (USA300); [9],0.7 µg/mL
same,MIC,MRSA USA500 (NRS385); [10],0.7 µg/mL
same,MIC,MRSA USA1100,0.7 µg/mL
same,improvement in the MIC value relative to the lead compound,[4],two- to four-fold improvement
same,bactericidal effect in time-kill assay,MRSA (USA300),bactericidal
same,time to eliminate MRSA completely (reduce CFU to zero),MRSA (USA300),six hours
same,toxicity toward murine macrophage cells,[2],none were observed to be toxic
